Converted amounts (≈) assume the structure as drawn.
How the values were obtained:
Tagia sp. = conditions: acute; duration: 14 days; mortality
Hypoaspis aculeifer = conditions: chronic/long-term, duration: 14 days
Canidae = conditions: oral, Dog Other, clinical signs
Daphnia magna = conditions: acute; duration: 48 hours; mortality
Chrysoperla externa = conditions: not reported; mortality
Coturnix japonica = conditions: acute, oral, mortality
Anas platyrhynchos = conditions: oral, mortality
Lepomis macrochirus = conditions: acute; duration: 96 hours; mortality
Bibionidae = conditions: chronic/long-term; duration: 28 days
Apis mellifera = conditions: acute; duration: 48 hours; dermal; mortality

Q: With `CCOC(=O)CCN(SN(C)C(=O)Oc1cccc2c1OC(C)(C)C2)C(C)C` [Benfuracarb] as the compound, how does the LC50 (Tagia sp.) read?
A: 58 mg/kg

Q: And the NOEC (Tagia sp.)?
A: < 10 mg/kg

Q: What about the LEL (Hypoaspis aculeifer; mortality) of the same compound?
A: 1000 g/ha

Q: What about the LEL (Hypoaspis aculeifer; reproduction) of the same compound?
A: 1000 g/ha

Q: What about the NOAEL (Canidae; chronic, duration: 6 months) of the same compound?
A: 1 mg/kg-day

Q: What about the NOAEL (Canidae; chronic, duration: 24 months) of the same compound?
A: 1 mg/kg-day

Q: What about the NOAEL (Canidae; subchronic, duration: 13 weeks) of the same compound?
A: 1 mg/kg-day

Q: What about the LC50 (Daphnia magna) of the same compound?
A: 0.0099 µg/mL (≈ 0.0241 µM)

Q: What about the LD50 (Chrysoperla externa) of the same compound?
A: 5.2 g/ha

Q: What about the LD50 (Rattus norvegicus; acute, oral, mortality) of the same compound?
A: 205 mg/kg-day

Q: What about the NOAEL (Rattus norvegicus; reproduction developmental, reproduction) of the same compound?
A: 1.2 mg/kg-day

Q: What about the NOAEL (Rattus norvegicus; short-term, duration: 28 days, clinical signs) of the same compound?
A: 1.8 mg/kg-day

Q: What about the LC50 (Colinus virginianus; acute, oral, diet, mortality) of the same compound?
A: 179 mg/kg-day

Q: What about the NOEL (Colinus virginianus; reproduction developmental) of the same compound?
A: 8.93 mg/kg-day

Q: What about the LD50 (Coturnix japonica; F) of the same compound?
A: 39.9 mg/kg-day

Q: What about the LD50 (Coturnix japonica; M) of the same compound?
A: 48.3 mg/kg-day

Q: What about the LD50 (Anas platyrhynchos; acute, unspecified) of the same compound?
A: 19.8 mg/kg-day

Q: And the LC50 (Anas platyrhynchos; short-term, feed)?
A: 15 mg/kg-day

Q: And the LC50 (Lepomis macrochirus)?
A: 0.017 µg/mL (≈ 0.0414 µM)

Q: And the NOEC (Bibionidae)?
A: 0.001 mg/L

Q: And the LD50 (Apis mellifera)?
A: 0.19 µg/piece

From EPA's ToxValDB 9.5 (doi:10.2903/j.efsa.2009.239r)
